US7384757B2 (Bristol-Myers Squibb Company, priority 2004, dated 2008)

Experiments:
[1] = target: T1, rat acetyl CoA carboxylase 1 (rACC) (Rattus norvegicus, UniProt P11497); test: ACC/FAS coupled scintillation proximity assay, reagent titrations (Km, Kact); format: biochemical; settings: other reagents saturating, acetyl CoA 20 μM, 37° C.
T1 construct: from tissue; host or cells: rat liver (rats fasted 36 h, then fed a fat-free carbohydrate diet for 48 h)
Method: The sequence of addition of the solution mixtures into each well of a custom 384-well phospholipid coated FLASHPLATE™ was as follows:
Step 1: Add 35 μl of enzyme mix in assay buffer.
Step 2: Add 5 μl of 3% DMSO or 10× compound in 3% DMSO.
Step 3: Incubate at room temperature for 10 min.
Step 5: Incubate the plate at 37° C. for 2 hours.
Step 6: Count the plate in a TOPCOUNT™ NXT for 2 min/well.

[2] = tested on: CC(=O)SCCNC(=O)CCNC(=O)[C@H](O)C(C)(C)COP(=O)(O)OP(=O)(O)OC[C@H]1O[C@@H](n2cnc3c(N)ncnc32)[C@H](O)[C@@H]1OP(=O)(O)O; test: purified protein, by the assay type; settings: other: from saturation curve, other reagents saturating, 37° C., pH 7.6
[3] = tested on: ACC and FAS; test: ACC/FAS coupled SPA, effect of DMSO and purification reagents; format: biochemical, rat; settings: for effect on the enzyme reaction: ACC/FAS coupled SPA, FIG. 12
Method: (§1) The [^3H]-acetyl CoA mix in the final reaction was 20 μM with 0.25 μCi per assay (specific activity of 250 μCi/μmol).
Compound Dilution: Compounds were dissolved in 100% DMSO to obtain 10 mM stock solution. A serial dilution of the compounds in 100% DMSO was made first. Then the compounds were diluted 1:33.3 in buffer to obtain 10× compound solution in 3% DMSO. From this intermediate dilution, a further 10× dilution was made in the assay, resulting 0.3% final DMSO concentration in the assay.
For screening in drug discovery, compounds are routinely dissolved in 100% DMSO and then further diluted to 1% or lower DMSO in the final assay. The effect of DMSO on the ACC/FAS coupled assay was studied. […] At 1% DMSO, the total signal decreased 25% and the S/B was reduced from 15 to 12 with a greater inhibition observed at higher concentrations. Therefore, it may be desirable to keep the final DMSO concentrations in the assay below 0.3%, and not to exceed 1%.
Buffers containing sucrose, glycerol and polyethylene glycol (PEG) were used in the purification of ACC and FAS. In addition, the purified enzymes were stored in buffers containing 20% glycerol to increase long-term stability. In view of this, the effects of glycerol, sucrose and PEG on the enzyme activities were studied with the ACC/FAS coupled SPA.

[4] = target: T2, rat fatty acid synthase (rFAS) (Rattus norvegicus, UniProt P12785); test: ACC/FAS coupled SPA, dependence of FAS activity on NADPH; format: biochemical; settings: FAS cofactor, varied in the ACC/FAS coupled assay
T2 construct: from tissue
Method: as §1
The Km values for these FAS substrates can be determined independently. In the present study, the dependence of FAS activity on NADPH was determined by varying the cofactor concentration (FIG. 10). […] In this study, NADPH was maintained at saturating concentration of 100 μM.

T2 sequence (P12785 whole entry): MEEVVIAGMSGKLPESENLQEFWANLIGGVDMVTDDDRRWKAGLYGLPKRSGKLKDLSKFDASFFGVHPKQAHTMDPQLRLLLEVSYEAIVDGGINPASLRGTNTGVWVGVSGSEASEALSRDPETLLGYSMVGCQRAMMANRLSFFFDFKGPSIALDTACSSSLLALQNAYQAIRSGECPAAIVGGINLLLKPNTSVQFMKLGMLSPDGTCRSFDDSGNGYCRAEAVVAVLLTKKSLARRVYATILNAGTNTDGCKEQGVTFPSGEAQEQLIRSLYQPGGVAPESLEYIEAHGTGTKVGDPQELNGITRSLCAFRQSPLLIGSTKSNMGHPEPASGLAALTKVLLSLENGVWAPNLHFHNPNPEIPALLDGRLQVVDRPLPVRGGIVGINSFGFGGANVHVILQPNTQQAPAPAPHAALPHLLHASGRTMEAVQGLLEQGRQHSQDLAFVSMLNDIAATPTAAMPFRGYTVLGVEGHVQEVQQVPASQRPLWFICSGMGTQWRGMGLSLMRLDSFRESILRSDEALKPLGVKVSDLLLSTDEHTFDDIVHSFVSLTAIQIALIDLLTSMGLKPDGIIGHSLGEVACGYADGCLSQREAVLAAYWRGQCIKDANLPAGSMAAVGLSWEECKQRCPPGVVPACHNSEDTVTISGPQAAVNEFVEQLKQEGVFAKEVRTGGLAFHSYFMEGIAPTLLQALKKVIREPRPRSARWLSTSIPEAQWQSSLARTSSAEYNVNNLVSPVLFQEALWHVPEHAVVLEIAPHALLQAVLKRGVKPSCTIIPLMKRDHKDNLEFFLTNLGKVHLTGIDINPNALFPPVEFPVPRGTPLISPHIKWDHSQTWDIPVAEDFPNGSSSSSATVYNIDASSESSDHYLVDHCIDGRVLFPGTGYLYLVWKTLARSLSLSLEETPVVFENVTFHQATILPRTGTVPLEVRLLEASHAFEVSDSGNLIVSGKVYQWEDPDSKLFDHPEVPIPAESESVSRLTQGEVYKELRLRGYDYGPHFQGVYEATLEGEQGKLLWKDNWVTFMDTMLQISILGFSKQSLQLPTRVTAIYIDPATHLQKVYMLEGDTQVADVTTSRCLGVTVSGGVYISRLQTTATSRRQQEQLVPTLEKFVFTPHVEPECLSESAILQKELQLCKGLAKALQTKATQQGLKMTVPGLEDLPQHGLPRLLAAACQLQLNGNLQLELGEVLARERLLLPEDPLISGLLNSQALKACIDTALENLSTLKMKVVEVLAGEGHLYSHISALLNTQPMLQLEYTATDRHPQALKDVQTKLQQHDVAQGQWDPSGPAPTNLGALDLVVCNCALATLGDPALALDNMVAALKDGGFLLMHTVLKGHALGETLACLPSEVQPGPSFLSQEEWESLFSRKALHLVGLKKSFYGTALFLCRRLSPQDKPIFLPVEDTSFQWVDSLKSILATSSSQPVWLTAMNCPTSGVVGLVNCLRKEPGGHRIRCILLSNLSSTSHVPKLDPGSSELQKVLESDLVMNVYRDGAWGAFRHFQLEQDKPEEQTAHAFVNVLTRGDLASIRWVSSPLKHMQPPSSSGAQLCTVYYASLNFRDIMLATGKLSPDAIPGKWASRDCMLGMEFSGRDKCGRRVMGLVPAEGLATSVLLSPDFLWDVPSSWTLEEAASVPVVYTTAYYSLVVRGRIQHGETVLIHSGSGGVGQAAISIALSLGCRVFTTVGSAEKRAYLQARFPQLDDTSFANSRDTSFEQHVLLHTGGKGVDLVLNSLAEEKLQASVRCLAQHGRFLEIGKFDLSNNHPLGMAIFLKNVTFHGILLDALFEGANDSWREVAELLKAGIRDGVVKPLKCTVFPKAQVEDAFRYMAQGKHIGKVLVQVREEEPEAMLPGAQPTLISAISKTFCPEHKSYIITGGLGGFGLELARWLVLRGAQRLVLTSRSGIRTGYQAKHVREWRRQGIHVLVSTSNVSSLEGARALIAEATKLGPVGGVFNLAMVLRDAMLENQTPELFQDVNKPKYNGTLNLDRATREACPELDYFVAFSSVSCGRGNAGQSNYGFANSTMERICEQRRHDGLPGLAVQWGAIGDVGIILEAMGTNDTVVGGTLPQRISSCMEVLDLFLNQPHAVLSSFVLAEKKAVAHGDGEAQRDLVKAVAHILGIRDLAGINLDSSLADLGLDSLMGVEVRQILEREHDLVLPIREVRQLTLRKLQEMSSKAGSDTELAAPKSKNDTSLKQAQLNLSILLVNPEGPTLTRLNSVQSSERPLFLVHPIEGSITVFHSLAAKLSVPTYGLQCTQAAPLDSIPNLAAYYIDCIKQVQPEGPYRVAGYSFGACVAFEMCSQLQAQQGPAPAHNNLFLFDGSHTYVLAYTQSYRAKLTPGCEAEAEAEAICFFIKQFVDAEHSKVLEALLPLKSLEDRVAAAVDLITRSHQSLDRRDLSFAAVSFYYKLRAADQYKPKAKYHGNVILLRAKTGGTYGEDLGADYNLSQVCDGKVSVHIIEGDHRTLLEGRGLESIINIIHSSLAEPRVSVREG

## O=C([O-])O.[Na+] [NaHCO3]
[1]; from saturation curve
  Km: 1700 µM

## [Cl-].[Cl-].[Mg+2] [MgCl2]
[1]
  Kact (half-maximal saturation value): 6.3 mM

## rat acetyl CoA carboxylase 1 (rACC) (Rattus norvegicus)
[2]
  Km: 47 µM

## OC[C@H]1O[C@@](CO)(O[C@H]2O[C@H](CO)[C@@H](O)[C@H](O)[C@H]2O)[C@@H](O)[C@@H]1O [sucrose]
[3]
  effect on the enzyme reaction: none of these reagents have any significant effect

## OCC(O)CO [glycerol]
[3]
  effect on the enzyme reaction: none of these reagents have any significant effect

## C[S+](C)[O-] [DMSO]
[3]; DMSO concentrations up to 0.3%
  effect on the activity of FAS or ACC: no significant effect
[3]; at 1% DMSO
  decrease of total signal: 25%

## NC(=O)C1=CN([C@@H]2O[C@H](COP(=O)(O)OP(=O)(O)OC[C@H]3O[C@@H](n4cnc5c(N)ncnc54)[C@H](OP(=O)(O)O)[C@@H]3O)[C@@H](O)[C@H]2O)C=CC1 [NADPH]
[4]
  Km: 28 µM
